system: NALL-1; experiment: selective drug sensitivity score (sDSS, relative to normal bone marrow) (sDSS (score)); higher = more potent and effective on the cell line relative to normal bone marrow cells; details: 72 h
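Also: ALL cell lines in 384-well plates, five doses spanning 10,000-fold, each plate scaled between vehicle and 100 µmol/L benzalkonium chloride controls, sDSS an adapted area-under-curve metric.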

In order of rising “selective drug sensitivity score” value:
1. CC(=O)Nc1cccc(-n2c(=O)n(C3CC3)c(=O)c3c(Nc4ccc(I)cc4F)n(C)c(=O)c(C)c32)c1 [Trametinib] (top concentration 250 nM)  -4.84
2. C[C@]1(c2nc3c(C(N)=O)cccc3[nH]2)CCCN1 [Veliparib] (top concentration 10000 nM)  -4.18
3. CC(C)c1cc(-c2n[nH]c(=O)n2-c2ccc3c(ccn3C)c2)c(O)cc1O [Ganetespib] (top concentration 1000 nM)  -1.86
4. CCn1c(C(=O)N(C2CC2)C2CC2)cc2c3c(ncn3C)c(Nc3cc(C)n(C)n3)nc21 (top concentration 10000 nM)  0.44
5. COC[C@H](NC(=O)c1cnc(C)s1)C(=O)N[C@@H](COC)C(=O)N[C@@H](Cc1ccccc1)C(=O)[C@@]1(C)CO1 [Oprozomib] (top concentration 2500 nM)  0.9
6. Nc1nc(Cl)nc2c1ncn2[C@@H]1O[C@H](CO)[C@@H](O)[C@@H]1F [Clofarabine] (top concentration 10000 nM)  1.8
7. Nc1ncn([C@@H]2O[C@H](CO)[C@@H](O)[C@H]2O)c(=O)n1 [Azacitidine] (top concentration 10000 nM)  4.14
8. Cc1ccc(C(=O)N(CCCN)[C@@H](c2oc3cc(Cl)ccc3c(=O)c2Cc2ccccc2)C(C)C)cc1 (top concentration 100 nM)  6.06
9. Cc1ccc(C(=O)Nc2ccc(Oc3cc4cnn(C)c4cc3-c3cn[nH]c3)c(F)c2)c(=O)n1-c1ccc(F)cc1 [Merestinib] (top concentration 1000 nM)  8.28

system: NALM-16; experiment: as above; details: 72 h

In order of rising “selective drug sensitivity score” value:
1. Nc1nc(Cl)nc2c1ncn2[C@@H]1O[C@H](CO)[C@@H](O)[C@@H]1F [Clofarabine] (top concentration 10000 nM)  -5.6
2. CCn1c(C(=O)N(C2CC2)C2CC2)cc2c3c(ncn3C)c(Nc3cc(C)n(C)n3)nc21 (top concentration 10000 nM)  -4.36
3. C[C@]1(c2nc3c(C(N)=O)cccc3[nH]2)CCCN1 [Veliparib] (top concentration 10000 nM)  -4.18
4. CN1CC[C@H](c2c(O)cc(O)c3c(=O)cc(-c4ccccc4Cl)oc23)[C@H](O)C1 [Alvocidib] (top concentration 10000 nM)  -3.6
5. CC(C)c1cc(-c2n[nH]c(=O)n2-c2ccc3c(ccn3C)c2)c(O)cc1O [Ganetespib] (top concentration 1000 nM)  -2.76
6. Cc1ccc(C(=O)Nc2cccc(C(F)(F)F)c2)cc1Nc1nc(-c2cccnc2)nc2c1cnn2C [NVP-BHG712] (top concentration 10000 nM)  -2.32
7. CC(=O)Nc1cccc(-n2c(=O)n(C3CC3)c(=O)c3c(Nc4ccc(I)cc4F)n(C)c(=O)c(C)c32)c1 [Trametinib] (top concentration 250 nM)  -1.24
8. CN(C)CCOc1ccc(/C(=C(/CCCl)c2ccccc2)c2ccccc2)cc1 [Toremifene] (top concentration 10000 nM)  -0.82
9. C/C=C1\NC(=O)[C@H]2CSSCC/C=C/[C@H](CC(=O)N[C@H](C(C)C)C(=O)N2)OC(=O)[C@H](C(C)C)NC1=O [Romidepsin] (top concentration 1000 nM)  0.76
10. CCCCc1nc2cc(/C=C/C(=O)NO)ccc2n1CCN(CC)CC [Pracinostat] (top concentration 10000 nM)  0.98
11. Cc1cc2c(C(C)C)c(O)c(O)c(C=O)c2c(O)c1-c1c(C)cc2c(C(C)C)c(O)c(O)c(C=O)c2c1O [AT-101] (top concentration 100000 nM)  0.98
12. Cn1ncc(Cl)c1-c1cc(C(=O)N[C@H](CN)Cc2cccc(F)c2)sc1Cl [Afuresertib] (top concentration 1000 nM)  1.46
13. Nc1ncn([C@@H]2O[C@H](CO)[C@@H](O)[C@H]2O)c(=O)n1 [Azacitidine] (top concentration 10000 nM)  1.84
14. COC[C@H](NC(=O)c1cnc(C)s1)C(=O)N[C@@H](COC)C(=O)N[C@@H](Cc1ccccc1)C(=O)[C@@]1(C)CO1 [Oprozomib] (top concentration 2500 nM)  1.9
15. Cc1ccc(C(=O)Nc2ccc(Oc3cc4cnn(C)c4cc3-c3cn[nH]c3)c(F)c2)c(=O)n1-c1ccc(F)cc1 [Merestinib] (top concentration 1000 nM)  2.58
16. CNc1nc(-c2ccc3c(N)n[nH]c3c2)cc(N2C[C@@H](C(=O)NC3CCCCC3)CC[C@H]2C)n1 (top concentration 10000 nM)  3.86
17. Cc1cc(-c2nc(-c3ccc(OC(F)(F)F)cc3)no2)nn1Cc1ccnc(N2CCN(C3CC3)CC2)c1 [BAY_87-2243] (top concentration 1000 nM)  4.24
18. Cc1ccc(C(=O)N(CCCN)[C@@H](c2oc3cc(Cl)ccc3c(=O)c2Cc2ccccc2)C(C)C)cc1 (top concentration 100 nM)  5.76

system: P12-ICHIKAWA; experiment: as above; details: 72 h

In order of rising “selective drug sensitivity score” value:
1. CCn1c(C(=O)N(C2CC2)C2CC2)cc2c3c(ncn3C)c(Nc3cc(C)n(C)n3)nc21 (top concentration 10000 nM)  -4.36
2. C[C@]1(c2nc3c(C(N)=O)cccc3[nH]2)CCCN1 [Veliparib] (top concentration 10000 nM)  -4.18
3. CC(=O)Nc1cccc(-n2c(=O)n(C3CC3)c(=O)c3c(Nc4ccc(I)cc4F)n(C)c(=O)c(C)c32)c1 [Trametinib] (top concentration 250 nM)  -3.64
4. CN1CC[C@H](c2c(O)cc(O)c3c(=O)cc(-c4ccccc4Cl)oc23)[C@H](O)C1 [Alvocidib] (top concentration 10000 nM)  -2.1
5. CN(C)CCOc1ccc(/C(=C(/CCCl)c2ccccc2)c2ccccc2)cc1 [Toremifene] (top concentration 10000 nM)  -1.12
6. CC(C)c1cc(-c2n[nH]c(=O)n2-c2ccc3c(ccn3C)c2)c(O)cc1O [Ganetespib] (top concentration 1000 nM)  -0.96
7. Cc1ccc(C(=O)Nc2ccc(Oc3cc4cnn(C)c4cc3-c3cn[nH]c3)c(F)c2)c(=O)n1-c1ccc(F)cc1 [Merestinib] (top concentration 1000 nM)  -0.62
8. Cn1ncc(Cl)c1-c1cc(C(=O)N[C@H](CN)Cc2cccc(F)c2)sc1Cl [Afuresertib] (top concentration 1000 nM)  -0.44
9. CNc1nc(-c2ccc3c(N)n[nH]c3c2)cc(N2C[C@@H](C(=O)NC3CCCCC3)CC[C@H]2C)n1 (top concentration 10000 nM)  -0.14
10. C/C=C1\NC(=O)[C@H]2CSSCC/C=C/[C@H](CC(=O)N[C@H](C(C)C)C(=O)N2)OC(=O)[C@H](C(C)C)NC1=O [Romidepsin] (top concentration 1000 nM)  1.66
11. Cc1ccc(C(=O)N(CCCN)[C@@H](c2oc3cc(Cl)ccc3c(=O)c2Cc2ccccc2)C(C)C)cc1 (top concentration 100 nM)  1.76
12. COC[C@H](NC(=O)c1cnc(C)s1)C(=O)N[C@@H](COC)C(=O)N[C@@H](Cc1ccccc1)C(=O)[C@@]1(C)CO1 [Oprozomib] (top concentration 2500 nM)  2.1
13. Nc1nc(Cl)nc2c1ncn2[C@@H]1O[C@H](CO)[C@@H](O)[C@@H]1F [Clofarabine] (top concentration 10000 nM)  2.1
14. Cc1cc2c(C(C)C)c(O)c(O)c(C=O)c2c(O)c1-c1c(C)cc2c(C(C)C)c(O)c(O)c(C=O)c2c1O [AT-101] (top concentration 100000 nM)  2.78
15. Cc1ccc(C(=O)Nc2cccc(C(F)(F)F)c2)cc1Nc1nc(-c2cccnc2)nc2c1cnn2C [NVP-BHG712] (top concentration 10000 nM)  3.08
16. Nc1ncn([C@@H]2O[C@H](CO)[C@@H](O)[C@H]2O)c(=O)n1 [Azacitidine] (top concentration 10000 nM)  3.74
17. CCCCc1nc2cc(/C=C/C(=O)NO)ccc2n1CCN(CC)CC [Pracinostat] (top concentration 10000 nM)  5.08
18. Cc1cc(-c2nc(-c3ccc(OC(F)(F)F)cc3)no2)nn1Cc1ccnc(N2CCN(C3CC3)CC2)c1 [BAY_87-2243] (top concentration 1000 nM)  23.9
